Data: ChEMBL document CHEMBL4177632
One block for each compound: values may come before it.

Legend:
Rattus norvegicus = species on record: Rattus norvegicus; assay: Selectivity index, ratio of IC50 for ALR1 in Wistar rat kidney to IC50 for ALR2 in Wistar rat eye lens
[1] = biological target: Aldo-keto reductase family 1 member B1 (Rattus norvegicus) (UniProt P07943); assay: Inhibition of ALR2 in Wistar rat lens assessed as reduction in glucose induced-sorbitol accumulation by measuring sorbitol level at 0.1 uM preincubated for 30 mins followed by glucose addition measured after 3 hrs by resazurin dye based fluorescence assay (reference value: 803.6 +/- 104.6 nmol/g)
[2] = biological target: Aldo-keto reductase family 1 member B1 (Rattus norvegicus) (UniProt P07943); assay: Inhibition of ALR2 in Wistar rat lens assessed as reduction in glucose induced-sorbitol accumulation by measuring sorbitol level at 1 uM preincubated for 30 mins followed by glucose addition measured after 3 hrs by resazurin dye based fluorescence assay (reference value: 803.6 +/- 104.6 nmol/g)
[3] = biological target: Aldo-keto reductase family 1 member B1 (Rattus norvegicus) (UniProt P07943); assay: Inhibition of ALR2 in Wistar rat lens assessed as reduction in glucose induced-sorbitol accumulation by measuring sorbitol level at 100 uM preincubated for 30 mins followed by glucose addition measured after 3 hrs by resazurin dye based fluorescence assay (reference value: 803.6 +/- 104.6 nmol/g)
[4] = biological target: Aldo-keto reductase family 1 member B1 (Rattus norvegicus) (UniProt P07943); assay: Inhibition of ALR2 in Wistar rat lens assessed as reduction in glucose induced-sorbitol accumulation by measuring sorbitol level preincubated for 30 mins followed by glucose addition measured after 3 hrs by resazurin dye based fluorescence assay
[5] = tested on: CCOC(=O)N1CCc2c(c3cc(OC)ccc3n2CC(=O)O)C1; assay: Inhibition of recombinant human AKR1B1 assessed as Km for D,L-glyceraldehyde substrate at 80 nM (reference value: 0.065+/- 0.003 […])
[6] = tested on: CCOC(=O)N1CCc2c(c3cc(OC)ccc3n2CC(=O)O)C1; assay: Inhibition of recombinant human AKR1B1 assessed as Km for D,L-glyceraldehyde substrate at 120 nM (reference value: 0.065+/- 0.003 […])

Compound: CC(=O)c1c(C)n(CC(=O)O)c2ccccc12
- Ratio IC50 (Rattus norvegicus): 66

Compound: Cc1c(C=O)c2ccccc2n1CC(=O)O
- Ratio IC50 (Rattus norvegicus): 35

Compound: CCOC(=O)N1CCc2c(c3cc(C(=O)O)ccc3n2CC(=O)O)C1
- Ratio IC50 (Rattus norvegicus): 381

Compound: Aldo-keto reductase family 1 member B1 (Homo sapiens) (from UniProt P15121)
- Km [5]: 36 µM
- Km [6]: 22 µM

The remaining lines, values ahead:

- Ratio IC50 (Rattus norvegicus): 131
Compound: O=C(O)Cn1c2c(c3ccccc31)CN(C(=O)C1CC1)CC2

- Ratio IC50 (Rattus norvegicus): 792
- Activity [1]: 657 nmol/g
- Activity [2]: 440 nmol/g
- Activity [3]: 249 nmol/g
- inhibition [4]: Dose-dependent effect
Compound: CCOC(=O)N1CCc2c(c3cc(OC)ccc3n2CC(=O)O)C1

- Ratio IC50 (Rattus norvegicus): 1070
- Activity [1]: 756 nmol/g
- Activity [2]: 631 nmol/g
- Activity [3]: 184 nmol/g
- inhibition [4]: Dose-dependent effect
Compound: CC(=O)N1CCc2c(c3ccccc3n2CC(=O)O)C1
